Measurements taken from patent publication US20240025913A1, “TERTIARY CARBOXAMIDE COMPOUNDS” (Vivace Therapeutics, Inc., priority 2020, published 2024).

Each compound was assayed on 8×TBD luciferase reporter in HEK293T cells (assay: YAP Reporter Assay (firefly luciferase)). Conditions: Homo sapiens, HEK-293T; HEK293T cells stably transfected with 8×TBD luciferase reporter and pRLTK; 24-hr incubation; starting from 3 μM, 1:3 dilution, 10 points.
Assay type: cell-based
Experimental: HEK293T cells stably transfected with 8×TBD luciferase reporter and pRLTK in 384-well plates were treated with the test compounds, starting from 3 μM (final concentration in assay plate), 1:3 dilution, and 10 points in quadruplicates. Post 24-hr incubation with compounds at 37° C. and 5% CO2, cells were lysed and 8×TBD-driven firefly luciferase and control TK-driven renilla luciferase activities were measured using Promega Dual-Luciferase Reporter Assay System.
Reagents: The reagents used for this study are: DMEM: Invitrogen #11960077, Dual-Glo Luciferase Assay System: Promega-E2980, Puromycin Dihydrochloride: Invitrogen-A1113803, 384-well plate: PerkinElmer-6007480, L-GLUTAMINE: Invitrogen-25030164, Hygromycin B: Invitrogen-10687010, and Penicillin-Streptomycin: Merk-TMS-AB2-C
Media: The media used for this assay were: Culture Medium: DMEM+1 ug/mL puromycin+200 ug/mL hygromycin (with 10% FBS+1 mM L-glutamine); and Assay Medium: DMEM (with 10% FBS+1 mM L-glutamine+1×P/S).
Cell Plating: The appropriate media was warmed at 37° C. by water bath: Culture Medium, Assay Medium, 1*D-PBS, 0.05% trypsin-EDTA. The cells were trypsinized after removing all media, then washed with 1*sterile D-PBS and then with 2 ml 0.05% trypsin-EDTA. The cells were then incubated at RT for one minute. Then 10 ml/75 cm2 flask Assay Medium was added to each flask. Using a 10 ml pipette, the cells were then gently resuspended in the media, until the clumps completely disappeared. The cells were then transferred into 50 ml centrifuge tubes and were centrifuged at 800 rpm for 5 mins. The medium was removed and the cells were resuspended with Assay Medium. An aliquot of cells was used to count the cell density (cells/ml). The cell suspension was then diluted with Assay Medium to a concentration of 6×10^4 cells/ml. 50 ul cells suspension was then plated to 384-well plate (PerkinElmer-6007480), 3×10^3 cells/well and the cells were incubated in an incubator at 37° C., 5% CO2.
Compound Treatment: In the afternoon (incubation of the plate with 3-4 hrs), the test compounds were added by Echo, starting from 3 uM (final concentration in the assay plate), 1:3 dilution, 10 points, quadruplicates. The plate was placed at 37° C., 5% CO2 incubator for 24 hrs.
Detection: The Dual-Glo Luciferase Reagent was prepared by transferring the contents of one bottle of Dual-Glo Luciferase Buffer to one bottle of Dual-Glo Luciferase Substrate to create the Dual-G Luciferase Reagent. Mixing was performed by inversion until the substrate was thoroughly dissolved. After mixing, the reagent was aliquoted into 15 ml tubes. In the afternoon (24 hrs post compound treatment), the DMEM+ medium in the 384 well plates were aspirated by Microplate Washer.
Measuring firefly luciferase activity: 20 ul Dual-Glo Luciferase Reagent was added to the 384-well plates. The plates were protected from light to prevent interference with the assay. The plates were shaken for […] followed centrifuging plates at 1000 rpm for 30 seconds. After waiting at least 10 minutes, the firefly luminescence was measured by Envision.
Measuring renilla luciferase activity: 20 ul Stop-Glo Reagent was added to the 384-well plates. The plates were shaken for […] and then centrifuged at 1000 rpm for 30 seconds. After waiting at least 10 minutes, the renilla luminescence was measured by Envision.
Compound IC50 and maximum inhibition on the firefly luciferase and renilla luciferase activities were reported separately.

**Q.** Which IC50 does the source give for CC(=O)NC1CN(C(=O)c2ccc3c(Oc4ccc(C(F)(F)F)cc4)cccc3c2)C1 [Compound 1, N-(1-(5-(4-(Trifluoromethyl)phenoxy)-2-naphthoyl)azetidin-3-yl)acetamide] here?
**A.** The IC50 was ≤ 0.1 µM.

**Q.** Which IC50 does the source give for NC1CN(C(=O)c2ccc3c(Oc4ccc(C(F)(F)F)cc4)cccc3c2)C1 [Compound 1A, (3-aminoazetidin-1-yl)(5-(4-(trifluoromethyl)phenoxy)naphthalen-2-yl)methanone] here?
**A.** Its IC50 is ≤ 0.1 µM.

**Q.** Which IC50 does the source give for O=C(c1ccc2c(Oc3ccc(C(F)(F)F)cc3)cccc2c1)N1CCNCC1 [Compound 2, Piperazin-1-yl(5-(4-(trifluoromethyl)phenoxy)naphthalen-2-yl)methanone] here?
**A.** The IC50 was 1 to 3 µM.

**Q.** For NC1CCN(C(=O)c2ccc3c(Oc4ccc(C(F)(F)F)cc4)cccc3c2)C1 (centres unmarked) [Compound 3, (3-Aminopyrrolidin-1-yl)(5-(4-(trifluoromethyl)phenoxy)naphthalen-2-yl)methanone], which IC50 is on record?
**A.** The IC50 was 0.1 to 1 µM.

**Q.** Which IC50 does the source give for NC1CCN(C(=O)c2ccc3c(Oc4ccc(C(F)(F)F)cc4)cccc3c2)CC1 [Compound 4, (4-Aminopiperidin-1-yl)(5-(4-(trifluoromethyl)phenoxy)naphthalen-2-yl)methanone] here?
**A.** Its IC50 is ≤ 0.1 µM.

**Q.** Which IC50 does the source give for NCC1CN(C(=O)c2ccc3c(Oc4ccc(C(F)(F)F)cc4)cccc3c2)C1 [Compound 7, (3-(Aminomethyl)azetidin-1-yl)(5-(4-(trifluoromethyl)phenoxy)naphthalen-2-yl)methanone] here?
**A.** The IC50 was ≤ 0.1 µM.

**Q.** With NCC1CCN(C(=O)c2ccc3c(Oc4ccc(C(F)(F)F)cc4)cccc3c2)C1 (centres unmarked) [Compound 8, (3-(Aminomethyl)pyrrolidin-1-yl)(5-(4-(trifluoromethyl)phenoxy)naphthalen-2-yl)methanone] as the compound, how does the IC50 read?
**A.** The IC50 was ≤ 0.1 µM.

**Q.** NCC1CCCN(C(=O)c2ccc3c(Oc4ccc(C(F)(F)F)cc4)cccc3c2)C1 (centres unmarked) [Compound 9, (3-(Aminomethyl)piperidin-1-yl)(5-(4-(trifluoromethyl)phenoxy)naphthalen-2-yl)methanone] was tested. Which IC50 did it give?
**A.** The IC50 was 0.1 to 1 µM.

**Q.** Which IC50 does the source give for O=C(c1ccc2c(Oc3ccc(C(F)(F)F)cc3)cccc2c1)N1CC2(CNC2)C1 [Compound 11, (2,6-Diazaspiro[3.3]heptan-2-yl)(5-(4-(trifluoromethyl)phenoxy)naphthalen-2-yl)methanone] here?
**A.** The IC50 was 0.1 to 1 µM.

**Q.** CN(C)C1CN(C(=O)c2ccc3c(Oc4ccc(C(F)(F)F)cc4)cccc3c2)C1 [Compound 12, (3-(Dimethylamino)azetidin-1-yl)(5-(4-(trifluoromethyl)phenoxy)naphthalen-2-yl)methanone] was tested. Which IC50 did it give?
**A.** Its IC50 is 1 to 3 µM.

**Q.** With O=C(c1ccc2c(Oc3ccc(C(F)(F)F)cc3)cccc2c1)N1CC(CO)C1 [Compound 13, (3-(Hydroxymethyl)azetidin-1-yl)(5-(4-(trifluoromethyl)phenoxy)naphthalen-2-yl)methanone] as the compound, how does the IC50 read?
**A.** The IC50 was ≤ 0.1 µM.

**Q.** Which IC50 does the source give for CN(C)CC1CN(C(=O)c2ccc3c(Oc4ccc(C(F)(F)F)cc4)cccc3c2)C1 [Compound 14, (3-((Dimethylamino)methyl)azetidin-1-yl)(5-(4-(trifluoromethyl)phenoxy)naphthalen-2-yl)methanone] here?
**A.** Its IC50 is 0.1 to 1 µM.

**Q.** O=C(c1ccc2c(Oc3ccc(C(F)(F)F)cc3)cccc2c1)N1CC(O)C1 [Compound 15, (3-Hydroxyazetidin-1-yl)(5-(4-(trifluoromethyl)phenoxy)naphthalen-2-yl)methanone] was tested. Which IC50 did it give?
**A.** The IC50 was ≤ 0.1 µM.

**Q.** With CC(=O)NCC1CN(C(=O)c2ccc3c(Oc4ccc(C(F)(F)F)cc4)cccc3c2)C1 [Compound 16, N-((1-(5-(4-(trifluoromethyl)phenoxy)-2-naphthoyl)azetidin-3-yl)methyl)acetamide] as the compound, how does the IC50 read?
**A.** The IC50 was ≤ 0.1 µM.

**Q.** CS(=O)(=O)NCC1CN(C(=O)c2ccc3c(Oc4ccc(C(F)(F)F)cc4)cccc3c2)C1 [Compound 17, N-((1-(5-(4-(trifluoromethyl)phenoxy)-2-naphthoyl)azetidin-3-yl)methyl)methanesulfonamide] was tested. Which IC50 did it give?
**A.** The IC50 was ≤ 0.1 µM.

**Q.** For CN1CC2(C1)CN(C(=O)c1ccc3c(Oc4ccc(C(F)(F)F)cc4)cccc3c1)C2 [Compound 18, (6-Methyl-2,6-diazaspiro[3.3]heptan-2-yl)(5-(4-(trifluoromethyl)phenoxy)naphthalen-2-yl)methanone], which IC50 is on record?
**A.** Its IC50 is 0.1 to 1 µM.

**Q.** With CCN1CC2(C1)CN(C(=O)c1ccc3c(Oc4ccc(C(F)(F)F)cc4)cccc3c1)C2 [Compound 19, (6-Ethyl-2,6-diazaspiro[3.3]heptan-2-yl)(5-(4-(trifluoromethyl)phenoxy)naphthalen-2-yl)methanone] as the compound, how does the IC50 read?
**A.** The IC50 was 0.1 to 1 µM.

**Q.** How did the IC50 turn out when CC(C)N1CC2(CN(C(=O)c3ccc4c(Oc5ccc(C(F)(F)F)cc5)cccc4c3)C2)C1 [Compound 20, (6-Isopropyl-2,6-diazaspiro[3.3]heptan-2-yl)(5-(4-(trifluoromethyl)phenoxy)naphthalen-2-yl)methanone] was run?
**A.** Its IC50 is 0.1 to 1 µM.

**Q.** Which IC50 does the source give for O=C(c1ccc2c(Oc3ccc(C(F)(F)F)cc3)cccc2c1)N1CC2(CN(CCO)C2)C1 [Compound 21, (6-(2-Hydroxyethyl)-2,6-diazaspiro[3.3]heptan-2-yl)(5-(4-(trifluoromethyl)phenoxy)naphthalen-2-yl)methanone] here?
**A.** The IC50 was 0.1 to 1 µM.

**Q.** For COCCN1CC2(C1)CN(C(=O)c1ccc3c(Oc4ccc(C(F)(F)F)cc4)cccc3c1)C2 [Compound 22, (6-(2-Methoxyethyl)-2,6-diazaspiro[3.3]heptan-2-yl)(5-(4-(trifluoromethyl)phenoxy)naphthalen-2-yl)methanone], which IC50 is on record?
**A.** The IC50 was 0.1 to 1 µM.

**Q.** O=C(c1ccc2c(Oc3ccc(C(F)(F)F)cc3)cccc2c1)N1CC2(CN(CCF)C2)C1 [Compound 23, (6-(2-Fluoroethyl)-2,6-diazaspiro[3.3]heptan-2-yl)(5-(4-(trifluoromethyl)phenoxy)naphthalen-2-yl)methanone] was tested. Which IC50 did it give?
**A.** Its IC50 is 0.1 to 1 µM.

**Q.** For O=C(c1ccc2c(Oc3ccc(C(F)(F)F)cc3)cccc2c1)N1CC2(CN(CC(F)F)C2)C1 [Compound 24, (6-(2,2-Difluoroethyl)-2,6-diazaspiro[3.3]heptan-2-yl)(5-(4-(trifluoromethyl)phenoxy)naphthalen-2-yl)methanone], which IC50 is on record?
**A.** The IC50 was 0.1 to 1 µM.

**Q.** CNCC1CN(C(=O)c2ccc3c(Oc4ccc(C(F)(F)F)cc4)cccc3c2)C1 [Compound 25, (3-((Methylamino)methyl)azetidin-1-yl)(5-(4-(trifluoromethyl)phenoxy)naphthalen-2-yl)methanone] was tested. Which IC50 did it give?
**A.** Its IC50 is 0.1 to 1 µM.

**Q.** For CNC1CN(C(=O)c2ccc3c(Oc4ccc(C(F)(F)F)cc4)cccc3c2)C1 [Compound 26, (3-(Methylamino)azetidin-1-yl)(5-(4-(trifluoromethyl)phenoxy)naphthalen-2-yl)methanone], which IC50 is on record?
**A.** The IC50 was 0.1 to 1 µM.

**Q.** Which IC50 does the source give for CCNC1CN(C(=O)c2ccc3c(Oc4ccc(C(F)(F)F)cc4)cccc3c2)C1 [Compound 27, (3-(Ethylamino)azetidin-1-yl)(5-(4-(trifluoromethyl)phenoxy)naphthalen-2-yl)methanone] here?
**A.** The IC50 was 0.1 to 1 µM.

**Q.** For CC(C)NC1CN(C(=O)c2ccc3c(Oc4ccc(C(F)(F)F)cc4)cccc3c2)C1 [Compound 28, (3-(Isopropylamino)azetidin-1-yl)(5-(4-(trifluoromethyl)phenoxy)naphthalen-2-yl)methanone], which IC50 is on record?
**A.** Its IC50 is ≤ 0.1 µM.

**Q.** For COCCNC1CN(C(=O)c2ccc3c(Oc4ccc(C(F)(F)F)cc4)cccc3c2)C1 [Compound 29, (3-((2-Methoxyethyl)amino)azetidin-1-yl)(5-(4-(trifluoromethyl)phenoxy)naphthalen-2-yl)methanone], which IC50 is on record?
**A.** The IC50 was 0.1 to 1 µM.

**Q.** O=C(c1ccc2c(Oc3ccc(C(F)(F)F)cc3)cccc2c1)N1CC(NCCO)C1 [Compound 30, (3-((2-Hydroxyethyl)amino)azetidin-1-yl)(5-(4-(trifluoromethyl)phenoxy)naphthalen-2-yl)methanone] was tested. Which IC50 did it give?
**A.** Its IC50 is ≤ 0.1 µM.

**Q.** For O=C(c1ccc2c(Oc3ccc(C(F)(F)F)cc3)cccc2c1)N1CC(NCCF)C1 [Compound 31, (3-((2-Fluoroethyl)amino)azetidin-1-yl)(5-(4-(trifluoromethyl)phenoxy)naphthalen-2-yl)methanone], which IC50 is on record?
**A.** The IC50 was 0.1 to 1 µM.
